Consider 2 compounds from patent publication US9630841B2, “Method for producing an aqueous stable chlorine dioxide solution” (A.P.F. AQUA SYSTEM AG, priority 2010, dated 2017).

The nature of data set [1]: Saturation limit of chlorine dioxide in water. The class given is physicochemical. As to conditions: 5° C. and normal pressure. The text has this: With the method according to the invention, chlorine dioxide solutions can be produced in any desired and/or suitable concentration. Preferably, aqueous solutions of up to about 2 wt %, preferably about 1 wt % of chlorine dioxide are produced with the method according to the invention. Chlorine dioxide solutions with higher concentrations are more difficult to obtain because of the limited solubility of chlorine dioxide in water, but they can nevertheless be realized. When using higher concentrations of chlorite for the production of the chlorine dioxide solutions according to the invention, in particular when using chlorite concentrations in the range of the saturation solubility of the corresponding chlorite salt, aqueous chlorine dioxide solutions with a concentration of up to about 4.5 wt % can be produced. The value of about 4.5 wt % represents the saturation limit of chlorine dioxide in water determined experimentally at 5° C. and normal pressure. With higher pressure, even free chlorine dioxide phases can be generated in water. […] This means that the solubility of chlorine dioxide is higher, the less foreign matter there is in the solution. […]

The conditions of data set [2]: aqueous solution, 20° C.; cited from earlier work.

As for `[O][Cl+][O-]` [chlorine dioxide], the “saturation limit of chlorine dioxide in water” value in data set [1] is given as “about 4.5 wt %”. Consider `O=S(=O)([O-])OOS(=O)(=O)[O-].[Na+].[Na+]` [sodium peroxodisulfate], for which, in data set [2], the saturation concentration entry was “about 54.5 wt %”.
